Test results published in PubChem BioAssay (NCI).
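Compound exposure: 48 hours, 5 concentrations, 96-well plates. TGI: total growth inhibition.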

Columns and labels:
Assay in all cases: growth of human tumour cells (NCI), 48 h
[1] = test system: OVCAR-5 ovarian
[2] = test system: SN12C renal
[3] = test system: CAKI-1 renal
[4] = test system: EKVX NSCLC
[5] = test system: RXF-631 renal
[6] = test system: SK-MEL-2 melanoma
[7] = test system: NCI-H522 lung
[8] = test system: NCI-H23 lung
[9] = test system: CCRF-CEM leukemia
[10] = test system: UACC-257 melanoma
[11] = test system: SW-620 colon
[12] = test system: KM12 colon
[13] = test system: IGROV1 ovarian
[14] = test system: SF-539 CNS
[15] = test system: SF-295 CNS
[16] = test system: ACHN renal
[17] = test system: RPMI-8226 leukemia
[18] = test system: OVCAR-8 ovarian
[19] = test system: UO-31 renal
[20] = test system: U251 CNS
[21] = test system: RXF 393 renal
[22] = test system: MALME-3M melanoma
[23] = test system: SK-MEL-28 melanoma
[24] = test system: DMS 114 small cell lung
[25] = test system: HOP-92 NSCLC
[26] = test system: SNB-78 CNS
[27] = test system: SF-268 CNS
[28] = test system: COLO 205 colon
[29] = test system: SNB-19 CNS
[30] = test system: HL-60(TB) leukemia
[31] = test system: HT29 colon
[32] = test system: UACC-62 melanoma
[33] = test system: SNB-75 CNS
[34] = test system: LXFL 529 NSCLC
[35] = test system: M14 melanoma
[36] = test system: A549 NSCLC
[37] = test system: DLD-1 colon
[38] = test system: HOP-18 NSCLC
[39] = test system: DMS 273 small cell lung
[40] = test system: OVCAR-4 ovarian
[41] = test system: HCT-116 colon
[42] = test system: NCI-H460 lung
[43] = test system: SR leukemia
[44] = test system: SK-OV-3 ovarian
[45] = test system: K-562 leukemia
[46] = test system: M19-MEL melanoma
[47] = test system: SK-MEL-5 melanoma
[48] = test system: LOX IMVI melanoma
[49] = test system: HOP-62 NSCLC
[50] = test system: MOLT-4 leukemia
[51] = test system: TK-10 renal
[52] = test system: A498 renal
[53] = test system: 786-0 renal
[54] = test system: OVCAR-3 ovarian
[55] = test system: NCI-H226 lung
[56] = test system: HCC-2998 colon
[57] = test system: KM20L2 colon
[58] = test system: HCT-15 colon

CCCCCCCCCCCCC(=O)CCCCC(=O)O
TGI [1]: 35.8 µM
TGI [2]: 55.8 µM
TGI [3]: > 100 µM
TGI [4]: > 100 µM
TGI [5]: 38.6 µM
TGI [6]: 47.4 µM
TGI [7]: 42.1 µM
TGI [8]: > 100 µM
TGI [9]: > 100 µM
TGI [10]: > 100 µM
TGI [11]: > 100 µM
TGI [12]: 29.5 µM
TGI [13]: 35.3 µM
TGI [14]: 36.6 µM
TGI [15]: 51.2 µM
TGI [16]: 73.7 µM
TGI [17]: 40.8 µM
TGI [18]: 39.7 µM
TGI [19]: 60 µM
TGI [20]: 79 µM
TGI [21]: > 100 µM
TGI [22]: 43.6 µM
TGI [23]: 46.5 µM
TGI [24]: 42 µM
TGI [25]: 41.5 µM
TGI [26]: > 100 µM
TGI [27]: 71.6 µM
TGI [28]: 32.7 µM
TGI [29]: > 100 µM
TGI [30]: 33.4 µM
TGI [31]: 30.7 µM
TGI [32]: 36.1 µM
TGI [33]: 71.1 µM
TGI [34]: 35.3 µM
TGI [35]: 33.6 µM
TGI [36]: 44.6 µM
TGI [37]: 38.1 µM
TGI [38]: 59.3 µM
TGI [39]: > 100 µM
TGI [40]: > 100 µM
TGI [41]: 54.6 µM
TGI [42]: 39.1 µM
TGI [43]: 47 µM
TGI [44]: > 100 µM
TGI [45]: 39.8 µM
TGI [46]: 38.9 µM
TGI [47]: 34.1 µM
TGI [48]: 46.6 µM
TGI [49]: 41.9 µM
TGI [50]: 35.7 µM
TGI [51]: > 100 µM
TGI [52]: 36.3 µM
TGI [53]: 84.7 µM
TGI [54]: > 100 µM
TGI [55]: 59.1 µM

NCCCNC(=O)c1csc(NC(=O)c2csc(NC(=O)CCCN)n2)n1
TGI [1]: > 100 µM
TGI [2]: > 100 µM
TGI [3]: > 100 µM
TGI [4]: > 100 µM
TGI [5]: > 100 µM
TGI [6]: > 100 µM
TGI [7]: > 100 µM
TGI [8]: > 100 µM
TGI [9]: > 100 µM
TGI [10]: > 100 µM
TGI [12]: > 100 µM
TGI [13]: > 100 µM
TGI [14]: > 100 µM
TGI [15]: > 100 µM
TGI [16]: > 100 µM
TGI [17]: > 100 µM
TGI [18]: > 100 µM
TGI [19]: > 100 µM
TGI [20]: > 100 µM
TGI [56]: > 100 µM
TGI [22]: > 100 µM
TGI [23]: > 100 µM
TGI [24]: > 100 µM
TGI [25]: > 100 µM
TGI [26]: > 100 µM
TGI [27]: > 100 µM
TGI [28]: > 100 µM
TGI [30]: > 100 µM
TGI [31]: > 100 µM
TGI [32]: > 100 µM
TGI [33]: > 100 µM
TGI [34]: > 100 µM
TGI [35]: > 100 µM
TGI [36]: > 100 µM
TGI [37]: > 100 µM
TGI [38]: > 100 µM
TGI [39]: > 100 µM
TGI [40]: 44 µM
TGI [41]: > 100 µM
TGI [42]: > 100 µM
TGI [43]: > 100 µM
TGI [44]: > 100 µM
TGI [45]: > 100 µM
TGI [46]: > 100 µM
TGI [47]: > 100 µM
TGI [49]: > 100 µM
TGI [50]: > 100 µM
TGI [51]: > 100 µM
TGI [52]: > 100 µM
TGI [57]: > 100 µM
TGI [53]: > 100 µM
TGI [54]: > 100 µM
TGI [55]: > 100 µM
TGI [58]: > 100 µM
